Experimental data from patent US9334300B2, “Vitamin B6 derivatives of nucleotides, acyclonucleotides and acyclonucleoside phosphonates” (MBC PHARMA, INC., priority 2011, dated 2016).

Assays:
5TGM1 cells = test: MTS proliferation assay, multiple myeloma cell line; type: cell-based, rodent; settings: 72 hours, FIG. 3
Experimental: In a 96-well plate, each well was prepared to contain 50 uL of 50,000 5TGM1 cells in media (HyClone IMDM Modified+4 mM L-Glu, HEPES with 10% Fetal Bovine Serum) to which was added 50 uL media containing cytarabine or compound 3 (MU004-26) that achieved the following final concentrations: 0, 0.1, 0.2, 0.5, 1, 3, 10, or 100 uM. The cells were incubated at 37° C. with 5% CO2 for 24, 48 or 72 hours (data trends similarly for all incubation periods while the 72 hour data is shown). The Promega […] based proliferation assay kit was used as per manufacturer's instructions. In short, to each well 100 uL of MTS/PMS reagent was added and allowed to incubate for approximately 2 hours at 37° C. to achieve a colorimetric indication of active cell metabolism. This was quantitated by reading the visible absorption at 415 nm. The data (FIG. 3) was normalized to the absorption range defined from minimal absorbance—media absent cells and drug present, to maximum absorbance—media with cells in the absence of drug. All points were measured in triplicate and averaged before normalization to a 0-100% range. Data was plotted (FIG. 3) as percent inhibition versus log of the compound concentration. As the FIG. 3 illustrates the Cytarabine IC50=0.5 uM while the Conjugate IC50=1 uM.

PC3 prostate cancer line = test: MTS proliferation assay, PC3 prostate cancer cells; type: cell-based; settings: 48 hours, FIG. 1
Experimental: (§1) In a 96-well plate, each well was prepared to contain 50 uL of 50,000 cells in media (HyClone IMDM Modified+4 mM L-Glu, HEPES with 10% Fetal Bovine Serum) to which was added 50 uL media containing either the free nucleoside (cytarabine or gemcitabine) or the conjugate (compound 3 or 16) that achieved the following final concentrations: 0, 0.1, 0.2, 0.5, 1, 3, 10, or 100 uM. The cells were incubated at 37° C. with 5% CO2 for 24, 48 or 72 hours (data trends similarly for all incubation periods while the 48 hour data is shown). The Promega MTS based proliferation assay kit (Promega; CellTiter 96® AQueous Non-Radioactive Cell Proliferation Assay (MTS)) was used as per manufacturer's instructions. In short, to each well 100 uL of MTS/PMS reagent was added and allowed to incubate for approximately 2 hours at 37° C. to achieve a colorimetric indication of active cell metabolism. This was quantitated by reading the visible absorption at 415 nm. The data (FIG. 1) was normalized to the absorption range defined from minimal absorbance (media absent cells and drug present), to maximum absorbance (media with cells in the absence of drug). All points were measured in triplicate and averaged before normalization to a 0-100% range. Data was plotted (FIG. 1) as percent inhibition versus log of the compound concentration. […]

22Rv1 cells [1] = test: MTS proliferation assay, 22Rv1 prostate cancer cells; type: cell-based
Experimental: (§2) In a 96-well plate, each well was prepared to contain 50 uL of 50,000 cells in media (HyClone IMDM Modified+4 mM L-Glu, HEPES with 10% Fetal Bovine Serum) to which was added 50 uL media containing either the free nucleoside (cytarabine or gemcitabine) or the conjugate (compound 3 or 16) that achieved the following final concentrations: 0, 0.1, 0.2, 0.5, 1, 3, 10, or 100 uM. The cells were incubated at 37° C. with 5% CO2 for 24, 48 or 72 hours (data trends similarly for all incubation periods while the 48 hour data is shown). The Promega MTS based proliferation assay kit (Promega; CellTiter 96® AQueous Non-Radioactive Cell Proliferation Assay (MTS)) was used as per manufacturer's instructions. In short, to each well 100 uL of MTS/PMS reagent was added and allowed to incubate for approximately 2 hours at 37° C. to achieve a colorimetric indication of active cell metabolism. This was quantitated by reading the visible absorption at 415 nm. The data (FIG. 1) was normalized to the absorption range defined from minimal absorbance (media absent cells and drug present), to maximum absorbance (media with cells in the absence of drug). All points were measured in triplicate and averaged before normalization to a 0-100% range. Data was plotted (FIG. 1) as percent inhibition versus log of the compound concentration. Where sigmodial curve fitting was possible, a four-parameter logistic non-linear regression model equation was used to generate the curves and IC50 values. […] The pulse chase experiments shown in FIG. 2 were done as described above with the one alteration that at either the 10 or 60 time point after addition of drug the media was replaced with drug-free media and the cells were allowed to continue incubation for a total of 48 hours. […] Data points were collected in quintuplicate; error bars show standard deviations. […] Sigmodial curve fitting employed a four-parameter logistic non-linear regression model equation.

22Rv1 cells [2] = test: Pulse chase (10 or 60 minute exposure) MTS proliferation assay, 22Rv1; type: cell-based; settings: 48 hours in fresh media
Experimental: as §2
This was tested for with a 10 or 60 minute pulsed exposure of 22Rv1 cells to compounds, followed by 48 hours of incubation in fresh media. […]

[3] = Conjugate stability in saline and growth media (HPLC); type: physicochemical; settings: for stability in buffers and media: over the time course of experiments
Experimental: The rapid release of nucleoside or nucleotide from the conjugate into the growth media appeared to be ruled out. To test for this event conjugate 3 was incubated in isotonic saline, sterile media or media that was conditioned by 3 days of cell growth. In conditioned media the cells were removed from the media by centrifugation and conjugate was added to the media and incubated at 37° C. for 0.25, 24 and 72 hours. Proteins and large molecules were removed via precipitation with a 5:4:1 v:v:v mixture of Acetonitrile:methanol:1% Formic acid and subsequent centrifugation. The supernatant (100 uL injection volume) was subjected to HPLC analysis on DNA Pac PA 200 (Dionex, USA) column in a gradient of 400 mM ammonium acetate in 20% acetonitrile (3-40% over 10 minutes).

[4] = tested on: subcutaneous Capan-2 tumors; test: Mouse xenograft model of pancreatic cancer; type: in vivo; settings: nude mice, Capan-2 subcutaneous, 20 mg/kg 3-times per week
Experimental: FIG. 4 illustrates the conjugate of vitamin B6 and gemcitabine is efficacious in a mouse model of human pancreatic cancer. In this model, immune compromised nude mice were injected subcutaneously with the human pancreatic cell line Capan-2 (˜10^6 cells/100 ul). After tumor growth was detected the animals were randomized and either administered the isotonic saline vehicle control alone or with the gemcitabine conjugate (20 mg/kg; 3-times per week).

Capan2 cells = test: Pulse chase (60 minute exposure) MTS proliferation assay, Capan2; type: cell-based, human; settings: 60 minute pulse, all concentrations tested
[5] = tested on: pancreatic cell lines (Capan2, Panc1 and MiaPaca); test: MTS proliferation assay, pancreatic cancer cell lines; type: cell-based; settings: 48 hours, FIG. 1
Experimental: as §1

`Nc1ccn([C@@H]2O[C@H](CO)[C@@H](O)[C@@H]2O)c(=O)n1` [Cytarabine, reference compound] gave an IC50 (5TGM1 cells) of 500 nM.

With `Nc1ccn([C@@H]2O[C@H](CO)[C@@H](O)C2(F)F)c(=O)n1` [Gemcitabine, 2′-Deoxy-2′,2′-difluorocytidine, reference compound] the “sensitivity to parent drug relative to conjugate” value (PC3 prostate cancer line) was 3 fold, the effect on proliferation (22Rv1 cells [1]; 48 hour exposure, 0.1-10 uM) was “stimulated proliferation” and the stimulation of proliferation (22Rv1 cells [2]; 100 uM pulse) was 10%.

For `Cc1ncc(CO)c(CN[P@SP3](=O)(O)OC[C@H]2O[C@@H](n3ccc(N)nc3=O)C(O)C2O)c1O` (stereo partly drawn) [Compound 3, 5′-aracytidilic acid N-pyridoxylamide], the IC50 (5TGM1 cells) was 1000 nM, the “release of free cytarabine or pyridoxamine (HPLC)” value ([3]; isotonic saline, sterile media or conditioned media, 37° C., 0.25, 24 and 72 hours) was “neither free cytarabine nor free pyridoxamine (or any other pyridoxyl based compound) was detected” and the “stability in buffers and media” value [3] was “stable”. For the same molecule, the “fold more potent than araC” value (22Rv1 cells [1]; 48 hours, FIG. 1) was over 10 fold.

In the case of `Cc1ncc(CO)c(CNP(=O)(O)OC[C@H]2O[C@@H](n3ccc(N)nc3=O)C(F)(F)C2O)c1O` (stereo partly drawn) [Compound 16, N-pyridoxylamide of 2′-Deoxy-2′,2′-difluoro-5′-cytidylic acid], the “tumor growth relative to untreated growth” value [4] is reported as “stabilized tumor growth”, the “effect of pulse compared to free Gem” value (Capan2 cells) is reported as “more rapid effect” and the “fold more potent than Gem alone” value [5] is reported as 2-100 fold. For the same molecule, the “stability in buffers and media” value [3] was “stable”, the “fold more potent than Gem” value (22Rv1 cells [1]; 48 hours, FIG. 1) was “up to 7 fold” and the “decrease of proliferation beyond that of free gemcitabine” value (22Rv1 cells [2]; 100 uM pulse for 60 minutes) was 40%. For the same molecule, the anti-proliferation after pulse (22Rv1 cells [2]; 10 minute pulse) was “measurable anti-proliferation”.
